In patent publication US20080214455A1, “Novel Chemical Compounds” (SMITHKLINE BEECHAM CORPORATION, priority 2005, published 2008):

Target: T1, hYAK3 (Homo sapiens, UniProt O43781)
T1 construct: GST (N); His6 (C); made in house; host or cells: baculovirus expression system in Sf9 cells
T1 sequence (O43781 142-526): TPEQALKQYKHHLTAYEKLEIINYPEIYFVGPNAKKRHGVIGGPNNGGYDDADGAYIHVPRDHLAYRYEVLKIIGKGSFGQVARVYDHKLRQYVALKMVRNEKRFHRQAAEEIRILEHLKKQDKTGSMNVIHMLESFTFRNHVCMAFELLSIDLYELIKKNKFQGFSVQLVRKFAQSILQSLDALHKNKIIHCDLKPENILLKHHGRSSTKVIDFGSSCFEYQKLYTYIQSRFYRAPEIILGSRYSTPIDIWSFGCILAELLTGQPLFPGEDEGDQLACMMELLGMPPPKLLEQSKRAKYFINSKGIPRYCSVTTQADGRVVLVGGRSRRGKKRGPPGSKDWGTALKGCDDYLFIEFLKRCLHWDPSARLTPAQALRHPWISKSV
Assay: YAK3 Scintillation Proximity Assay using Ser164 of myelin basic protein as the phosphoacceptor (kinase assay of purified hYAK3)
Format: biochemical
Settings: purified GST-hYak3-His6; 1 μM ATP; 4 μM Ser164 peptide; 2 hours at room temperature
Method: Substrate phosphorylation assays were carried out as follows:
YAK3 Scintillation Proximity Assays Using Ser164 of Myelin Basic Protein as the Phosphoacceptor
The source of Ser164 substrate peptide The biotinylated Ser164, S164A peptide(LGGRDSRAGS*PMARRKK-ahx-Biotin-Amide), sequence derived from the C-terminus of bovine myelin basic protein (MBP) with Ser162 substituted as Ala 162, was purchased from California Peptide Research Inc. (Napa, Calif.), and its purity was determined by HPLC. Phosphorylation occurs at position 164 (marked S* above). The calculated molecular mass of the peptide is 2166 dalton. Solid sample was dissolved at 10 mM in DMSO, aliquoted, and stored at −20 C until use. […]
Kinase assay of purified hYAK3: Assays were performed in 96 well (Costar, Catalog No.3789) or 384 well plates (Costar, Catalog No.3705). […] Compounds, titrated in DMSO, were evaluated at concentrations ranging from 50 μM to 0.2 nM. […]
The data for compound dose responses were plotted as % Inhibition, calculated with the data reduction formula 100*(1-[(U1-C2)/(C1-C2)]), versus concentration of compound, where U is the unknown value, C1 is the average control value obtained for DMSO, and C2 is the average control value obtained for 0.05M EDTA. […] The results for each compound were recorded as pIC50 calculated as follows: pIC50=−Log 10(K).

## O=C1N=C(Nc2c(Cl)cccc2Cl)S/C1=C\c1ccc2ncc(N3CCOCC3)nc2c1 [Example 1, (5Z)-2-[(2,6-Dichlorophenyl)amino]-5-{[3-(4-morpholinyl)-6-quinoxalinyl]methylidene}-1,3-thiazol-4(5H)-one]
  IC50: 1.26 nM
